From US6939869B2, “Pyrrolo[2,1-c][1,4] benzodiazepine-indole derivatives, their preparation process, and uses of the same” (Kaohsiung Medical University, priority 2002, dated 2005)

Tests used:
RXF 393 (renal cancer) = assay: NCI in vitro anticancer assay, growth inhibition, RXF 393; format: cell-based; details: Homo sapiens, read-out: GI50 (concentration causing 50% cell growth inhibition)
Description: (§1) The tested human tumor cell lines are as follows: (1) CCRF-CEM, K-562, MOLT-4 and SR of leukemia; (2) A549/ATCC, EKVX, HOP-62, HOP-92, NCI-H226, NCI-H23, NCI-H322M, NCI-H460a and NCI-H522 of non-small cell lung cancer; (3) COLO 205, HCC-2998, HCT-116, HCT-15, HT29, KM12 and SW-620 of colon cancer; (4) SF-268, SF-295, SF-539, SNB-19, SNB-75 and U251 of CNS cancer; (5) LOX IMVI, MALME-3M, M14, SK-MEL-2, SK-MEL-28, SK-MEL-5, UACC-257 and UACC-62 of melanoma; (6) IGROV1, OVCAR-3, OVCAR-4, OVCAR-5, OVCAR-8 and SK-OV-3 of ovarian cancer; (7) 786-0, A498, ACHN, CAKI-1, RXF 393, SN12C, TK-10 and UO-31 of renal cancer; (8) […] and DU-145 of prostate cancer; and (9) MCF7, MCF7/ADR-RES, MDA-MB-231/ATCC, HS 578T, MDA-MB-435, MDA-N, BT-549 and T-47D of breast cancer.
(§2) For each compound, the dose-response curves for each tested tumor cell line were measured with five different dose concentrations, and the concentration causing 50% cell growth inhibition (GI50) compared with the control was calculated.

[1] = system: 60 human tumor cell lines; assay: NCI in vitro anticancer assay, mean over 60 cell lines; format: cell-based; details: mean values over 60 cell lines tested
Description: as §1, §2
Table 1 summarizes the respective GI50 values and mean GI50 values for the tested compounds in relation to all the 60 tumor cell lines.

U251 (CNS cancer) = assay: NCI in vitro anticancer assay, growth inhibition, U251; format: cell-based; details: Homo sapiens, U-251, read-out: GI50 (concentration causing 50% cell growth inhibition)
Description: as §1, §2

[2] = In vivo hollow fiber assay (NCI); details: intraperitoneal (IP) and subcutaneous (SC) samples, total score of 20 or more considered active
Protocol: The compounds obtained from the above Synthesis Ex. 1 and Synthesis Ex. 2 were further examined in an in vivo hollow fiber assay conducted by the National Cancer Institute (NCI) in the United States, in which an intraperitoneal (IP) sample and a subcutaneous (SC) sample were tested. In this assay, if a tested compound is observed to have a total score of IP score and SC score […]20, it will be considered to be active and to have the potential as an anti-tumor/anti-cancer drug candidate. According to the confidential report of the Developmental Therapeutics Program issued by NCI on Apr.

SN12C (renal cancer) = assay: NCI in vitro anticancer assay, growth inhibition, SN12C; format: cell-based; details: Homo sapiens, read-out: GI50 (concentration causing 50% cell growth inhibition)
Description: as §1, §2

[3] = system: NCI-H522 (non-small cell lung cancer); assay: NCI in vitro anticancer assay, growth inhibition, NCI-H522; format: cell-based; details: Homo sapiens, read-out: GI50 (concentration causing 50% cell growth inhibition)
Description: as §1, §2

[4] = system: EKVX (non-small cell lung cancer); assay: NCI in vitro anticancer assay, growth inhibition, EKVX; format: cell-based; details: Homo sapiens, read-out: GI50 (concentration causing 50% cell growth inhibition)
Description: as §1, §2

HT29 (colon cancer) = assay: NCI in vitro anticancer assay, growth inhibition, HT29; format: cell-based; details: Homo sapiens, HT-29, read-out: GI50 (concentration causing 50% cell growth inhibition)
Description: as §1, §2

SF-268 (CNS cancer) = assay: NCI in vitro anticancer assay, growth inhibition, SF-268; format: cell-based; details: Homo sapiens, read-out: GI50 (concentration causing 50% cell growth inhibition)
Description: as §1, §2

COLO 205 (colon cancer) = assay: NCI in vitro anticancer assay, growth inhibition, COLO 205; format: cell-based; details: Homo sapiens, read-out: GI50 (concentration causing 50% cell growth inhibition)
Description: as §1, §2

Structure (SMILES) | GI50 (RXF 393 (renal cancer)) | GI50 ([1]; Homo sapiens, 60 cell) | GI50 [1] | GI50 (U251 (CNS cancer)) | total score of IP score and SC score [2] | GI50 (SN12C (renal cancer)) | GI50 [3] | GI50 [4] | GI50 (HT29 (colon cancer)) | GI50 (SF-268 (CNS cancer)) | GI50 (COLO 205 (colon cancer))
COc1cc2c(cc1OC(=O)c1cc3ccccc3[nH]1)N=C[C@@H]1CCCN1C2=O [Synthesis Ex. 1] | 155 nM | ≤ 380 nM | 380 nM | 302 nM | 22 | 210 nM | 198 nM | 674 nM | 185 nM | 669 nM | 196 nM
COc1cc2c(cc1OCCCNC(=O)c1cc3ccccc3[nH]1)N=C[C@@H]1CCCN1C2=O [Synthesis Ex. 2] | 25 nM | – | – | 39.4 nM | 30 | 410 nM | 14.1 nM | 604 nM | 274 nM | 27 nM | 118 nM
